Assay results taken from patent US10710986B2, “PD-1/PD-L1 inhibitors” (Gilead Sciences, Inc., priority 2018, dated 2020).

Target: PD-1/PD-L1 (Homo sapiens (Human), UniProt Q9NZQ7)
Test: PD-1/PD-L1 biochemical protein-protein interaction assay (ALPHA)
Conditions: 0.3 nM His tagged PD-L1, 2.5 nM biotinylated Fc-PD-1, 60 minutes at 25° C., read-out: IC50 PD-L1-PD1

PD-1/PD-L1, sequence (Q9NZQ7 19-238): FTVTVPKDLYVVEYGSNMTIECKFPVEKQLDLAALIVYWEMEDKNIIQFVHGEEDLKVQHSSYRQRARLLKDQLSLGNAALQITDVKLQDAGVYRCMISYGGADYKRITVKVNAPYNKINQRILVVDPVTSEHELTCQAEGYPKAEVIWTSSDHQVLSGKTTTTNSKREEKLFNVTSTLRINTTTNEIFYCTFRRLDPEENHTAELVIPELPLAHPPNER

Row | Compound | IC50 [nM]
1 | COc1nc(-c2cccc(-c3cccc(-c4cnc(CN5CC6(C5)CC(C)(O)C6)c(OC)n4)c3Cl)c2Cl)cnc1CNC[C@@H]1CCC(=O)N1 [compound 307] | 0.167
2 | COc1nc(-c2cccc(-c3cccc(-c4cnc(CN5CC6(C5)CC(O)(C(F)(F)F)C6)c(OC)n4)c3Cl)c2Cl)cnc1CNC[C@@H]1CCC(=O)N1 [compound 308] | 0.337
3 | COC[C@H]1CCN1Cc1ncc(-c2cccc(-c3cccc(-c4cnc(CNC[C@@H]5CCC(=O)N5)c(OC)n4)c3Cl)c2Cl)nc1OC [compound 309] | 0.178
4 | COC[C@@H]1CCN1Cc1ncc(-c2cccc(-c3cccc(-c4cnc(CNC[C@@H]5CCC(=O)N5)c(OC)n4)c3Cl)c2Cl)nc1OC [compound 310] | 0.216
5 | COc1nc(-c2cccc(-c3cccc(-c4cnc(CNC[C@@H]5CCC(=O)N5)c(OC)n4)c3Cl)c2Cl)cnc1CNCC1CS(=O)(=O)C1 [compound 311] | 0.24
6 | COc1nc(-c2cccc(-c3cccc(-c4cnc(CN5C[C@H]6CC(=O)N[C@H]6C5)c(OC)n4)c3Cl)c2Cl)cnc1CNC[C@@H]1CCC(=O)N1 [compound 312] | 0.295
7 | COc1nc(-c2cccc(-c3cccc(-c4cnc(CNC[C@@H]5CCC(=O)N5)c(OC)n4)c3Cl)c2Cl)cnc1CNCC[C@H]1CCC(=O)N1 [compound 314] | 0.142
8 | COc1nc(-c2cccc(-c3cccc(-c4cnc([C@@H](C)N)c(OC)n4)c3Cl)c2Cl)cnc1CNC[C@@H]1CCC(=O)N1 [compound 315] | 0.18
9 | COc1nc(-c2cccc(-c3cccc(-c4cnc([C@H](C)N)c(OC)n4)c3Cl)c2Cl)cnc1CNC[C@@H]1CCC(=O)N1 [compound 316] | 0.17
10 | COc1nc(-c2cccc(-c3cccc(-c4cnc(CN[C@@H](C)[C@H]5CCC(=O)N5)c(OC)n4)c3Cl)c2Cl)cnc1CN[C@@H](C)[C@H]1CCC(=O)N1 [compound 317] | 0.22
11 | COc1nc(-c2cccc(-c3cccc(-c4cnc(CNC[C@@H]5CCC(=O)N5)c(OC)n4)c3Cl)c2Cl)cnc1CN [compound 318] | 0.15
12 | CNc1nc(-c2cccc(-c3cccc(-c4cnc(CN(C)C[C@@H]5CCC(=O)N5)c(NC)n4)c3Cl)c2Cl)cnc1CN(C)C[C@@H]1CCC(=O)N1 [compound 319] | 3.87
13 | CNc1nc(-c2cccc(-c3cccc(-c4cnc(CNC[C@H]5CCC(=O)N5)c(NC)n4)c3Cl)c2Cl)cnc1CNC[C@H]1CCC(=O)N1 [compound 320] | 3.72
14 | COc1nc(-c2cccc(-c3cccc(-c4cnc(CN[C@@H]5CCN(S(C)(=O)=O)C5)c(OC)n4)c3Cl)c2Cl)cnc1CN[C@@H]1CCN(S(C)(=O)=O)C1 [compound 321] | 0.46
15 | COc1nc(-c2cccc(-c3cccc(-c4cnc(CN(C)C[C@@H]5CCC(=O)N5)c(OC)n4)c3Cl)c2Cl)cnc1CN(C)CCO [compound 322] | 0.23
16 | COc1nc(-c2cccc(-c3cccc(-c4cnc(CN(C)CCO)c(OC)n4)c3Cl)c2Cl)cnc1CNC[C@@H]1CCC(=O)N1 [compound 323] | 0.12
17 | COc1nc(-c2cccc(-c3cccc(-c4cnc(CNC[C@H]5NC(=O)[C@@H]6C[C@H]56)c(OC)n4)c3Cl)c2Cl)cnc1CNC[C@H]1NC(=O)[C@@H]2C[C@H]12 [compound 324] | 0.358
18 | COc1nc(-c2cccc(-c3cccc(-c4cnc(CN(Cc5ccccc5)C[C@@H]5CCC(=O)N5)c(OC)n4)c3Cl)c2Cl)cnc1CNC[C@@H]1CCC(=O)N1 [compound 325] | 1.86

Row | Compound | IC50 [nM]
19 | COc1nc(-c2cccc(-c3cccc(-c4cnc(CNC[C@@H]5C[C@@H](C)C(=O)N5)c(OC)n4)c3Cl)c2Cl)cnc1CNC[C@@H]1C[C@@H](C)C(=O)N1 [compound 326] | 0.18
20 | COc1nc(-c2cccc(-c3cccc(-c4cnc(CN(C)C[C@@H]5CCC(=O)N5)c(OC)n4)c3Cl)c2Cl)cnc1CN(C)C[C@@H]1CCC(=O)N1 [compound 327] | 0.238
21 | COc1nc(-c2cccc(-c3cccc(-c4cnc(CN(CC5CC5)C[C@@H]5CCC(=O)N5)c(OC)n4)c3Cl)c2Cl)cnc1CN(CC1CC1)C[C@@H]1CCC(=O)N1 [compound 328] | 4.04
22 | COc1nc(-c2cccc(-c3cccc(-c4cnc(CN(CC5CC5)C[C@@H]5CCC(=O)N5)c(OC)n4)c3Cl)c2Cl)cnc1CNC[C@@H]1CCC(=O)N1 [compound 329] | 0.955
23 | COc1nc(-c2cccc(-c3cccc(-c4cnc(CNC[C@@H]5C[C@@H](CC(F)(F)F)C(=O)N5)c(OC)n4)c3Cl)c2Cl)cnc1CNC[C@@H]1C[C@@H](CC(F)(F)F)C(=O)N1 [compound 330] | 5.68
24 | COc1nc(-c2cccc(-c3cccc(-c4cnc(CNC[C@@H]5CC6(CC6)C(=O)N5)c(OC)n4)c3Cl)c2Cl)cnc1CNC[C@@H]1CC2(CC2)C(=O)N1 [compound 331] | 0.669
25 | COc1nc(-c2cccc(-c3cccc(-c4cnc(CN5[C@@H](C)COC[C@@H]5C)c(OC)n4)c3Cl)c2Cl)cnc1CNC[C@@H]1CCC(=O)N1 [compound 332] | 0.743
26 | COc1nc(-c2cccc(-c3cccc(-c4cnc(CN[C@@H]5CCN(C6COC6)C5)c(OC)n4)c3Cl)c2Cl)cnc1CNC[C@@H]1CCC(=O)N1 [compound 333] | 0.171
27 | COc1nc(-c2cccc(-c3cccc(-c4cnc(CN[C@@H]5CCOC[C@H]5O)c(OC)n4)c3Cl)c2Cl)cnc1CNC[C@@H]1CCC(=O)N1 [compound 334] | 0.246
28 | COc1nc(-c2cccc(-c3cccc(-c4cnc(CN[C@H]5CCOC[C@@H]5O)c(OC)n4)c3Cl)c2Cl)cnc1CNC[C@@H]1CCC(=O)N1 [compound 335] | 0.172
29 | COc1nc(-c2cccc(-c3cccc(-c4cnc(CN[C@H]5COCC[C@@H]5O)c(OC)n4)c3Cl)c2Cl)cnc1CNC[C@@H]1CCC(=O)N1 [compound 336] | 0.137
30 | COc1nc(-c2cccc(-c3cccc(-c4cnc(CNC[C@@H]5CCC(=O)N5)c(OC)n4)c3Cl)c2Cl)cnc1CNCc1ccc(S(N)(=O)=O)s1 [compound 337] | 1.1
31 | COc1nc(-c2cccc(-c3cccc(-c4cnc(CNC[C@@H]5CCC(=O)N5)c(OC)n4)c3Cl)c2Cl)cnc1CNCc1ncccc1O [compound 338] | 0.565
32 | COc1nc(-c2cccc(-c3cccc(-c4cnc(CN[C@@H]5COCC[C@H]5O)c(OC)n4)c3Cl)c2Cl)cnc1CNC[C@@H]1CCC(=O)N1 [compound 339] | 0.192
33 | COCCNCc1ncc(-c2cccc(-c3cccc(-c4cnc(CNC[C@@H]5CCC(=O)N5)c(OC)n4)c3Cl)c2Cl)nc1OC [compound 340] | 0.118
34 | COc1nc(-c2cccc(-c3cccc(-c4cnc(CN[C@H]5C[C@@H](CO)C5)c(OC)n4)c3Cl)c2Cl)cnc1CNC[C@@H]1CCC(=O)N1 [compound 341] | 0.094
35 | COc1nc(-c2cccc(-c3cccc(-c4cnc(CN[C@H]5C[C@H](O)C5)c(OC)n4)c3Cl)c2Cl)cnc1CNC[C@@H]1CCC(=O)N1 [compound 342] | 0.107

Continued, values first:

Row | IC50 [nM] | Compound
36 | 0.126 | COc1nc(-c2cccc(-c3cccc(-c4cnc(CN[C@H]5C[C@@H](O)C5)c(OC)n4)c3Cl)c2Cl)cnc1CNC[C@@H]1CCC(=O)N1 [compound 343]
37 | 0.114 | COc1nc(-c2cccc(-c3cccc(-c4cnc(CNC[C@H](C)O)c(OC)n4)c3Cl)c2Cl)cnc1CNC[C@@H]1CCC(=O)N1 [compound 344]
38 | 0.313 | COc1nc(-c2cccc(-c3cccc(-c4cnc(CNC[C@@H](C)O)c(OC)n4)c3Cl)c2Cl)cnc1CNC[C@@H]1CCC(=O)N1 [compound 345]
39 | 0.323 | COc1nc(-c2cccc(-c3cccc(-c4cnc(CN[C@@H](C)CO)c(OC)n4)c3Cl)c2Cl)cnc1CNC[C@@H]1CCC(=O)N1 [compound 346]
40 | 0.245 | COc1nc(-c2cccc(-c3cccc(-c4cnc(CN[C@H](C)CO)c(OC)n4)c3Cl)c2Cl)cnc1CNC[C@@H]1CCC(=O)N1 [compound 347]
41 | 0.138 | COc1nc(-c2cccc(-c3cccc(-c4cnc(CN5CC(N6CC(O)C6)C5)c(OC)n4)c3Cl)c2Cl)cnc1CNC[C@@H]1CCC(=O)N1 [compound 348]
42 | 0.389 | COc1nc(-c2cccc(-c3cccc(-c4cnc(CN5CC(c6ccccn6)C5)c(OC)n4)c3Cl)c2Cl)cnc1CNC[C@@H]1CCC(=O)N1 [compound 349]
43 | 0.737 | COc1nc(-c2cccc(-c3cccc(-c4cnc(CN5CC(c6ccccc6)C5)c(OC)n4)c3Cl)c2Cl)cnc1CNC[C@@H]1CCC(=O)N1 [compound 350]
44 | 0.283 | COc1nc(-c2cccc(-c3cccc(-c4cnc(CN5CC(N6CCOCC6)C5)c(OC)n4)c3Cl)c2Cl)cnc1CNC[C@@H]1CCC(=O)N1 [compound 351]
45 | 4.63 | COc1nc(-c2cccc(-c3cccc(-c4cnc(Cn5c(C)ccc5C)c(OC)n4)c3Cl)c2Cl)cnc1CNC[C@@H]1CCC(=O)N1 [compound 352]
46 | 0.064 | COc1nc(-c2cccc(-c3cccc(-c4cnc(CN[C@@H]5CC[C@H](O)C5)c(OC)n4)c3Cl)c2Cl)cnc1CNC[C@@H]1CCC(=O)N1 [compound 353]
47 | 0.133 | COc1nc(-c2cccc(-c3cccc(-c4cnc(CN[C@@H]5CC[C@@H](O)C5)c(OC)n4)c3Cl)c2Cl)cnc1CNC[C@@H]1CCC(=O)N1 [compound 354]
48 | 0.129 | COc1nc(-c2cccc(-c3cccc(-c4cnc(CN[C@H]5CC[C@H](O)C5)c(OC)n4)c3Cl)c2Cl)cnc1CNC[C@@H]1CCC(=O)N1 [compound 355]
49 | 0.102 | COc1nc(-c2cccc(-c3cccc(-c4cnc(CN[C@H]5CC[C@@H](O)C5)c(OC)n4)c3Cl)c2Cl)cnc1CNC[C@@H]1CCC(=O)N1 [compound 356]
50 | 0.096 | COc1nc(-c2cccc(-c3cccc(-c4cnc(CN[C@H]5C[C@H](S(C)(=O)=O)C5)c(OC)n4)c3Cl)c2Cl)cnc1CNC[C@@H]1CCC(=O)N1 [compound 357]
51 | 0.141 | COc1nc(-c2cccc(-c3cccc(-c4cnc(CN[C@H]5C[C@@H](S(C)(=O)=O)C5)c(OC)n4)c3Cl)c2Cl)cnc1CNC[C@@H]1CCC(=O)N1 [compound 358]
52 | 0.132 | COc1nc(-c2cccc(-c3cccc(-c4cnc(CN[C@H]5CCOC5)c(OC)n4)c3Cl)c2Cl)cnc1CNC[C@@H]1CCC(=O)N1 [compound 359]
53 | 0.401 | COc1nc(-c2cccc(-c3cccc(-c4cnc(CN[C@@H]5CCOC5)c(OC)n4)c3Cl)c2Cl)cnc1CNC[C@@H]1CCC(=O)N1 [compound 360]
54 | 0.13 | COc1nc(-c2cccc(-c3cccc(-c4cnc(CN[C@H]5C[C@H](NC(C)=O)C5)c(OC)n4)c3Cl)c2Cl)cnc1CNC[C@@H]1CCC(=O)N1 [compound 361]
